Measured values published in patent US9340590B2 (priority 2011, dated 2016).
Like-named read-outs stand apart in the source and are kept apart here. Positions of bridges follow the written chain, without caps; N, C: chain ends. Non-standard residues stand in square brackets, D forms with d. Residues, ends and D or L forms follow the SMILES beside them. Phe(4-F) = N[C@@H](Cc1ccc(F)cc1)C(=O)O; 1Nal = N[C@@H](Cc1cccc2ccccc12)C(=O)O

Experiments:
Assay in all cases: cell-based
hNav1.3 = hNav1.3 (Homo sapiens, UniProt Q9NY46); conditions: IonWorks Quattro, read-out: IWQ Use Nav1.3
hNav1.5 = hNav1.5 (Homo sapiens, UniProt Q14524)
hNav1.5, sequence (Q14524 whole entry, looked up): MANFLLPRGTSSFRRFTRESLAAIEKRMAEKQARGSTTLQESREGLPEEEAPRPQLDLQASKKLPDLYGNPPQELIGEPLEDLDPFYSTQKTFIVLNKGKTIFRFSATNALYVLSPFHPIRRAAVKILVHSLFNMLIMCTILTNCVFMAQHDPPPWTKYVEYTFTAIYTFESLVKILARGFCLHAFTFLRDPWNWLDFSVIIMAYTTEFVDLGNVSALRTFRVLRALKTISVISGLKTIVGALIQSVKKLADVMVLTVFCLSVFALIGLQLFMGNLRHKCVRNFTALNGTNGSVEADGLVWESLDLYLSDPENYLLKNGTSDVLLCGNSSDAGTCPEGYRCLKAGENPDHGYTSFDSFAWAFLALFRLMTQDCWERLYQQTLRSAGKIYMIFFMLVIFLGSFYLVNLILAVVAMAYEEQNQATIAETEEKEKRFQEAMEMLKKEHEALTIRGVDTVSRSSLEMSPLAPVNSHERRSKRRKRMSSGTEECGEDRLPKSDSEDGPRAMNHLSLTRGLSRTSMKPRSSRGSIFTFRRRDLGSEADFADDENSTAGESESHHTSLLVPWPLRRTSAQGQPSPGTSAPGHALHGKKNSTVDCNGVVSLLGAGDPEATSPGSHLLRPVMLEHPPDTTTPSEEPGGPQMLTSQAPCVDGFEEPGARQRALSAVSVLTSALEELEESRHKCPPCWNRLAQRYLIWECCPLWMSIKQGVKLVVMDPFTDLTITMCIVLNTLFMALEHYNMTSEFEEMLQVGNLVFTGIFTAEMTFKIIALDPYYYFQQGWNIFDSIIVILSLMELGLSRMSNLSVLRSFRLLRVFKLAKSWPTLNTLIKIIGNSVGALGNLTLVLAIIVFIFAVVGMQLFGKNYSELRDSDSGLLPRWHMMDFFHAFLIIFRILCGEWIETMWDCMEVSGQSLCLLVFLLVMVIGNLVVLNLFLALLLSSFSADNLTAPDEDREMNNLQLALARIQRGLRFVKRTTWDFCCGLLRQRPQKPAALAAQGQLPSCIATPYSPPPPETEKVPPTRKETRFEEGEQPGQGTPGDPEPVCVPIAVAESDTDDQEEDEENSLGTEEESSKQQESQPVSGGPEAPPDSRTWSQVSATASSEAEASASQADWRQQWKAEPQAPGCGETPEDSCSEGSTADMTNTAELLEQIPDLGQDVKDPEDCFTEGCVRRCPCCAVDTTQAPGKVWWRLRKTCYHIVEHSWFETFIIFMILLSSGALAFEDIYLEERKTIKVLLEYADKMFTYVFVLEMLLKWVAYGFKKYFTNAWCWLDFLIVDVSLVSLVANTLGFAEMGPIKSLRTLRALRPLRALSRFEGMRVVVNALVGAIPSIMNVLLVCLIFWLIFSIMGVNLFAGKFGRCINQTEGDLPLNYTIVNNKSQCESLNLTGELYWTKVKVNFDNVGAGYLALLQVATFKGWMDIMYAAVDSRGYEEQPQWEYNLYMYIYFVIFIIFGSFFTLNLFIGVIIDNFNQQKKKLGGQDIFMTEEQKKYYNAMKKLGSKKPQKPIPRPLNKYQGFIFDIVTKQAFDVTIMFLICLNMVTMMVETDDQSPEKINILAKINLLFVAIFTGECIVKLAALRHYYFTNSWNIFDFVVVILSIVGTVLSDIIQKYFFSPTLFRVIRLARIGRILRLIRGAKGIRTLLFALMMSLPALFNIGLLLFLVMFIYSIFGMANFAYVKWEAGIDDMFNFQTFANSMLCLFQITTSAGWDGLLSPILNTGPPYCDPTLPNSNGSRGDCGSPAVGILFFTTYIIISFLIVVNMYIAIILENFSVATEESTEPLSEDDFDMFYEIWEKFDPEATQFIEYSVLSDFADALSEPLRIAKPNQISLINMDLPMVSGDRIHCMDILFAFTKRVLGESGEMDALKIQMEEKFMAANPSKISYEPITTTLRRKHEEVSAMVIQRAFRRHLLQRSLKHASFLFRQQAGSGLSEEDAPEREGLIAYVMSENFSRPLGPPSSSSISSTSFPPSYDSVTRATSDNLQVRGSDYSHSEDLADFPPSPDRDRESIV

hNav1.7 = hNav1.7 (Homo sapiens, UniProt Q15858); assay type: cell-based; conditions: IonWorks Quattro
hNav1.7, sequence (Q15858 whole entry, looked up): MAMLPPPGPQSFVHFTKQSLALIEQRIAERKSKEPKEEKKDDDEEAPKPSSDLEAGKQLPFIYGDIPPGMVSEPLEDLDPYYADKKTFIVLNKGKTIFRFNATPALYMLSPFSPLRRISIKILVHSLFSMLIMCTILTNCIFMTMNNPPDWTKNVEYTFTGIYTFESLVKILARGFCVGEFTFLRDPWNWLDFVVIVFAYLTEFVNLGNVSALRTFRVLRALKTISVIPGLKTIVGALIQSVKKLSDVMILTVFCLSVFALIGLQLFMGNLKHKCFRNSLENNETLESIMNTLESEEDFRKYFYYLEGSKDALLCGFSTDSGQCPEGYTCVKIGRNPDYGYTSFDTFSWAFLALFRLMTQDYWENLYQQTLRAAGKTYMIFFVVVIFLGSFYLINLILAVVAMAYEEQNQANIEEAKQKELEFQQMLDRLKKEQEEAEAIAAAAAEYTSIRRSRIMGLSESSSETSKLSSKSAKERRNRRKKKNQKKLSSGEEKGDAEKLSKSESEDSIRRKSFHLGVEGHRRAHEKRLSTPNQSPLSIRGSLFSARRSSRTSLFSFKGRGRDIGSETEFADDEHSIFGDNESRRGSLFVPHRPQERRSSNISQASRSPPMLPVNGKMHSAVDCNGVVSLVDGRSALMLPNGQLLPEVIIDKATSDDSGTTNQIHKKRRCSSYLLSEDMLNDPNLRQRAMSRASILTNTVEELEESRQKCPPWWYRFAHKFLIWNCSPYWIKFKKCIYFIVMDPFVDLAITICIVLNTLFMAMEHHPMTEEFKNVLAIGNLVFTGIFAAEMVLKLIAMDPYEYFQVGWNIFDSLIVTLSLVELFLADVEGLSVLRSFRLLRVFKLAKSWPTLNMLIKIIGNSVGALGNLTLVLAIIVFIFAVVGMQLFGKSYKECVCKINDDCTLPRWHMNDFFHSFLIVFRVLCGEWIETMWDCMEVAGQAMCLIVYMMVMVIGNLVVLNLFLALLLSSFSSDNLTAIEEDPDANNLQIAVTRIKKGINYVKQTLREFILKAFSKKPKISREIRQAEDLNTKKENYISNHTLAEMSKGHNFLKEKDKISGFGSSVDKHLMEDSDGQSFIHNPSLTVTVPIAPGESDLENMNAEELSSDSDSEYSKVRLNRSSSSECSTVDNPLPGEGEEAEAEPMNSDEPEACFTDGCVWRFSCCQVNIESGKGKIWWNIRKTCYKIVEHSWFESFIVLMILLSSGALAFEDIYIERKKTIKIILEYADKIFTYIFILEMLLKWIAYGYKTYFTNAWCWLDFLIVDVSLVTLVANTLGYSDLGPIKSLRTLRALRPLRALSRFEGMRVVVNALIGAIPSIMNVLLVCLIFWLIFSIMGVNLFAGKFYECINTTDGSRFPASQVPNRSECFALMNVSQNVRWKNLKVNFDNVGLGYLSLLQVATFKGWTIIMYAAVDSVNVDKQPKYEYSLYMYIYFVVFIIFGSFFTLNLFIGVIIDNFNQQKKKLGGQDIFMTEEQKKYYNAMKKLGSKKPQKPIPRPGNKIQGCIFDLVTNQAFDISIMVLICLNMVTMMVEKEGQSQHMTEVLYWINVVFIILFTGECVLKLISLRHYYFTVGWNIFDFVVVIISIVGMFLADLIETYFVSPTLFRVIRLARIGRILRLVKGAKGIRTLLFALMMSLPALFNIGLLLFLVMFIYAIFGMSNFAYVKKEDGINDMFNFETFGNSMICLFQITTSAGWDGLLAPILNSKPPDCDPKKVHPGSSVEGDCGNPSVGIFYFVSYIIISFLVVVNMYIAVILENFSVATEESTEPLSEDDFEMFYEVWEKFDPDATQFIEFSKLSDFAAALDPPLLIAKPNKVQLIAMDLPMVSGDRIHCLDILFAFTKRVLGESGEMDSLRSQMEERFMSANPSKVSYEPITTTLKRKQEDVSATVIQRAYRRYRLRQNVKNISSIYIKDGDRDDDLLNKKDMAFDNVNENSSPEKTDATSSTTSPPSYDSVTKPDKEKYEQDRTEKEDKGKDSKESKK

[1] = clamped to −110 mV, depolarized to −10 mV, 5 min after compound, n=2
[2] = IonWorks Quattro, clamped to −110 mV, depolarized to −10 mV, 5 min after compound, n=2, read-out: IWQ Use Nav1.5
[3] = clamped to −110 mV, depolarized to −10 mV, 5 min after compound, n=2, read-out: IWQ Use Nav1.7
[4] = use-dependent block, hNav1.7, read-out: IWQ Use Nav1.7

Compound: CC[C@H](C)[C@H](NC(=O)[C@H](CCC(=O)O)NC(=O)[C@H](Cc1ccc(O)cc1)NC(=O)[C@H](CCCCN)NC(=O)[C@@H]1CSSC[C@@H]2NC(=O)[C@H](CCCCN)NC(=O)[C@H](CC(=O)O)NC(=O)[C@H](CC(N)=O)NC(=O)[C@H](CC(=O)O)NC(=O)[C@@H]3CCCN3C(=O)[C@H](CO)NC(=O)[C@@H]3CSSC[C@H](NC(=O)[C@H](C(C)C)NC(=O)[C@H](CC(C)C)NC(=O)[C@H](CC(N)=O)NC(=O)[C@@H]4CCCN4C(=O)[C@H](CCCNC(=N)N)NC(=O)[C@H](CSSC[C@H](NC(=O)[C@@H](N)CC(=O)O)C(=O)N[C@@H](CC(C)C)C(=O)NCC(=O)N[C@@H](Cc4ccccc4)C(=O)N[C@@H](CCSC)C(=O)N[C@@H](CCCNC(=N)N)C(=O)N[C@@H](CCCCN)C(=O)N3)NC2=O)C(=O)N[C@@H](CO)C(=O)N[C@@H](CCCNC(=N)N)C(=O)N[C@@H](CCCCN)C(=O)N[C@@H](Cc2c[nH]cn2)C(=O)N[C@@H](CCCCN)C(=O)N[C@@H](Cc2c[nH]c3ccccc23)C(=O)N1)C(N)=O [SEQ ID NO: 467] (H-DCLGFMRKCSPDNDKCCRPNLVCSRKHKWCKYEI-NH2; disulfide 2-17, 9-23, 16-30)
- IC50 (hNav1.3; [1]): 1150 nM
- IC50 (hNav1.5; [2]): 7.21 µM
- IC50 (hNav1.7; [3]): 4340 nM

Compound: CC[C@H](C)[C@@H]1NC(=O)[C@@H]2CSSC[C@@H]3NC(=O)[C@H](C(C)C)NC(=O)[C@H](CC(C)C)NC(=O)[C@H](CC(N)=O)NC(=O)[C@@H]4CCCN4C(=O)[C@H](CCCNC(=N)N)NC(=O)[C@H](CSSC[C@H](NC(=O)[C@@H](N)CC(=O)O)C(=O)N[C@@H](CC(C)C)C(=O)NCC(=O)N[C@@H](Cc4ccccc4)C(=O)N[C@@H](CCSC)C(=O)N[C@@H](CCCNC(=N)N)C(=O)N[C@@H](CCCCN)C(=O)N2)NC(=O)[C@H](CSSC[C@@H](C(=O)N[C@@H](CCCCN)C(=O)N[C@@H](Cc2ccc(O)cc2)C(=O)N[C@H](C(=O)N[C@@H](Cc2cccc4ccccc24)C(=O)N[C@@H](Cc2c[nH]c4ccccc24)C(N)=O)C(C)C)NC(=O)[C@H](Cc2c[nH]c4ccccc24)NC(=O)[C@H](CCCCN)NC(=O)[C@H](Cc2c[nH]cn2)NC(=O)[C@H]([C@@H](C)O)NC(=O)[C@H](CCCNC(=N)N)NC(=O)[C@H](CO)NC3=O)NC(=O)[C@H](CCCCN)NC(=O)[C@H](CC(=O)O)NC(=O)[C@H](CC(N)=O)NC(=O)[C@H](CC(=O)O)NC(=O)[C@@H]2CCCN2C1=O [compound 138] (H-DCLGFMRKCIPDNDKCCRPNLVCSRTHKWCKYV[1Nal]W-NH2; disulfide 2-17, 9-23, 16-30)
- IC50 (hNav1.3; use-dependent block, hNav1.3): 70 nM
- IC50 (hNav1.5; IonWorks Quattro, use-dependent block, hNav1.5, read-out: IWQ Use Nav1.5): 2.57 µM
- IC50 (hNav1.7; [4]): 130 nM

Compound: CC[C@H](C)[C@@H]1NC(=O)[C@@H]2CSSC[C@@H]3NC(=O)[C@H](C(C)C)NC(=O)[C@H](CC(C)C)NC(=O)[C@H](CC(N)=O)NC(=O)[C@@H]4CCCN4C(=O)[C@H](CCCNC(=N)N)NC(=O)[C@H](CSSC[C@H](NC(=O)[C@@H](N)CC(=O)O)C(=O)N[C@@H](CC(C)C)C(=O)NCC(=O)N[C@@H](Cc4ccc(F)cc4)C(=O)N[C@@H](Cc4ccccc4)C(=O)N[C@@H](CCCNC(=N)N)C(=O)N[C@@H](CCCCN)C(=O)N2)NC(=O)[C@H](CSSC[C@@H](C(=O)N[C@@H](CCCCN)C(=O)N[C@@H](Cc2ccc(O)cc2)C(=O)N[C@H](C(=O)N[C@@H](Cc2ccccc2)C(N)=O)C(C)C)NC(=O)[C@H](Cc2c[nH]c4ccccc24)NC(=O)[C@H](CCCCN)NC(=O)[C@H](Cc2c[nH]cn2)NC(=O)[C@H]([C@@H](C)O)NC(=O)[C@H](CCCNC(=N)N)NC(=O)[C@H](CO)NC3=O)NC(=O)[C@H](CCCCN)NC(=O)[C@H](CC(=O)O)NC(=O)[C@H](CC(N)=O)NC(=O)[C@H](CC(=O)O)NC(=O)[C@@H]2CCCN2C1=O [compound 624] (H-DCLG[Phe(4-F)]FRKCIPDNDKCCRPNLVCSRTHKWCKYVF-NH2; disulfide 2-17, 9-23, 16-30)
- IC50 (hNav1.3; use-dependent protocol, hNav1.3): 20 nM
- IC50 (hNav1.5; IonWorks Quattro, use-dependent protocol, hNav1.5, read-out: IWQ Use Nav1.5): 11.7 µM
- IC50 (hNav1.7; use-dependent protocol, hNav1.7, read-out: IWQ Use Nav1.7): 60 nM

Compound: CC[C@H](C)[C@@H]1NC(=O)[C@@H]2CSSC[C@@H]3NC(=O)[C@H](C(C)C)NC(=O)[C@H](CC(C)C)NC(=O)[C@H](CC(N)=O)NC(=O)[C@@H]4CCCN4C(=O)[C@H](CCCNC(=N)N)NC(=O)[C@H](CSSC[C@H](NC(=O)[C@@H](N)CC(=O)O)C(=O)N[C@@H](CC(C)C)C(=O)NCC(=O)N[C@@H](Cc4ccccc4)C(=O)N[C@@H](Cc4ccccc4)C(=O)N[C@@H](CCCNC(=N)N)C(=O)N[C@@H](CCCCN)C(=O)N2)NC(=O)[C@H](CSSC[C@@H](C(=O)N[C@@H](CCCCN)C(=O)N[C@@H](Cc2ccc(O)cc2)C(=O)N[C@H](C(=O)N[C@@H](Cc2cccc4ccccc24)C(N)=O)C(C)C)NC(=O)[C@H](Cc2c[nH]c4ccccc24)NC(=O)[C@H](CCCCN)NC(=O)[C@H](Cc2c[nH]cn2)NC(=O)[C@H]([C@@H](C)O)NC(=O)[C@H](CCCNC(=N)N)NC(=O)[C@H](CO)NC3=O)NC(=O)[C@H](CCCCN)NC(=O)[C@H](CC(=O)O)NC(=O)[C@H](CC(N)=O)NC(=O)[C@H](CC(=O)O)NC(=O)[C@@H]2CCCN2C1=O [compound 561] (H-DCLGFFRKCIPDNDKCCRPNLVCSRTHKWCKYV[1Nal]-NH2; disulfide 2-17, 9-23, 16-30)
- IC50 (hNav1.3; use-dependent block): 7 nM
- IC50 (hNav1.5; IonWorks Quattro, use-dependent block, read-out: IWQ Use Nav1.5): 2.2 µM
- IC50 (hNav1.7; use-dependent block, read-out: IWQ Use Nav1.7): 11 nM

Compound: CC[C@H](C)[C@@H]1NC(=O)[C@@H]2CSSC[C@@H]3NC(=O)[C@H](C(C)C)NC(=O)[C@H](CC(C)C)NC(=O)[C@H](CC(N)=O)NC(=O)[C@@H]4CCCN4C(=O)[C@H](CCCNC(=N)N)NC(=O)[C@H](CSSC[C@H](NC(=O)[C@@H](N)CC(=O)O)C(=O)N[C@@H](CC(C)C)C(=O)NCC(=O)N[C@@H](C)C(=O)N[C@@H](Cc4ccccc4)C(=O)N[C@@H](CCCNC(=N)N)C(=O)N[C@@H](CCCCN)C(=O)N2)NC(=O)[C@H](CSSC[C@@H](C(=O)N[C@@H](CCCCN)C(=O)N[C@@H](Cc2ccc(O)cc2)C(=O)N[C@H](C(=O)N[C@@H](Cc2ccccc2)C(N)=O)C(C)C)NC(=O)[C@H](Cc2c[nH]c4ccccc24)NC(=O)[C@H](CCCCN)NC(=O)[C@H](Cc2cnc[nH]2)NC(=O)[C@H](CC(C)C)NC(=O)[C@H](CCCNC(=N)N)NC(=O)[C@H](CO)NC3=O)NC(=O)[C@H](CCCCN)NC(=O)[C@H](CC(=O)O)NC(=O)[C@H](CC(N)=O)NC(=O)[C@H](CC(=O)O)NC(=O)[C@@H]2CCCN2C1=O [compound 263] (H-DCLGAFRKCIPDNDKCCRPNLVCSRLHKWCKYVF-NH2; disulfide 2-17, 9-23, 16-30)
- IC50 (hNav1.3; use-dependent block, hNav1.3): 50 nM
- IC50 (hNav1.5; IWQ Use Nav1.5 (μM)): 5 µM
- IC50 (hNav1.7; [4]): 80 nM

Compound: CC[C@H](C)[C@@H]1NC(=O)[C@@H]2CSSC[C@@H]3NC(=O)[C@H](C(C)C)NC(=O)[C@H](CC(C)C)NC(=O)[C@H](CC(N)=O)NC(=O)[C@@H]4CCCN4C(=O)[C@H](CCCNC(=N)N)NC(=O)[C@H](CSSC[C@H](NC(=O)[C@@H](N)CC(=O)O)C(=O)N[C@@H](CC(C)C)C(=O)NCC(=O)N[C@@H](Cc4ccccc4)C(=O)N[C@@H](c4ccccc4)C(=O)N[C@@H](CCCNC(=N)N)C(=O)N[C@@H](CCCCN)C(=O)N2)NC(=O)[C@H](CSSC[C@@H](C(=O)N[C@@H](CCCCN)C(=O)N[C@@H](Cc2ccc(O)cc2)C(=O)N[C@H](C(=O)N[C@@H](Cc2ccccc2)C(N)=O)C(C)C)NC(=O)[C@H](Cc2c[nH]c4ccccc24)NC(=O)[C@H](CCCCN)NC(=O)[C@H](Cc2c[nH]cn2)NC(=O)[C@H]([C@@H](C)O)NC(=O)[C@H](CCCNC(=N)N)NC(=O)[C@H](CO)NC3=O)NC(=O)[C@H](CCCCN)NC(=O)[C@H](CC(=O)O)NC(=O)[C@H](CC(N)=O)NC(=O)[C@H](CC(=O)O)NC(=O)[C@@H]2CCCN2C1=O [SEQ ID NO: 288]
- IC50 (hNav1.3; [1]): 90 nM
- IC50 (hNav1.5; [2]): > 5 µM
- IC50 (hNav1.7; [3]): 150 nM

Compound: CC[C@H](C)[C@@H]1NC(=O)[C@@H]2CSSC[C@@H]3NC(=O)[C@H](C(C)C)NC(=O)[C@H](CC(C)C)NC(=O)[C@H](CC(N)=O)NC(=O)[C@@H]4CCCN4C(=O)[C@H](CCCNC(=N)N)NC(=O)[C@H](CSSC[C@H](NC(=O)[C@@H](N)CC(=O)O)C(=O)N[C@@H](CC(C)C)C(=O)NCC(=O)N[C@@H](Cc4ccccc4)C(=O)N[C@@H](CCSC)C(=O)N[C@@H](CCCNC(=N)N)C(=O)N[C@@H](CCCCN)C(=O)N2)NC(=O)[C@H](CSSC[C@@H](C(=O)N[C@@H](CCCCN)C(=O)N[C@@H](Cc2ccc(O)cc2)C(=O)N[C@H](C(=O)N[C@@H](Cc2ccccc2)C(=O)N[C@@H](CCC(=O)O)C(N)=O)C(C)C)NC(=O)[C@H](Cc2c[nH]c4ccccc24)NC(=O)[C@H](CCCCN)NC(=O)[C@H](Cc2c[nH]cn2)NC(=O)[C@H]([C@@H](C)O)NC(=O)[C@H](CCCNC(=N)N)NC(=O)[C@H](CO)NC3=O)NC(=O)[C@H](CCCCN)NC(=O)[C@H](CC(=O)O)NC(=O)[C@H](CC(N)=O)NC(=O)[C@H](CC(=O)O)NC(=O)[C@@H]2CCCN2C1=O [compound 35]
- IC50 (hNav1.3; use-dependent, […]): 2470 nM
- IC50 (hNav1.5; IWQ Use Nav1.5 (μM)): 19.6 µM
- IC50 (hNav1.7; use-dependent, […], read-out: IWQ Use Nav1.7 (μm)): 4470 nM
